# From patent US6737383B1, “Herbicidal oxadiazolidines” (priority 1999, dated 2004)
# What was measured:
# bedstraw = assay: Test B pre/postemergence bedstraw; format: in vivo, Galium aparine
# How it was run: (§1)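 Test chemicals in a non-phytotoxic solvent mixture with surfactant were sprayed preemergence onto planted seeds and postemergence onto plants 2 to 18 cm tall (1- to 4-leaf stage). After twelve to sixteen days in a greenhouse, injury was visually rated against untreated controls from 0 (no effect) to 10 (complete control).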
# giant foxtail = assay: Test B pre/postemergence giant foxtail; format: in vivo, Setaria faberii
# How it was run: as §1
# sugar beet = assay: Test B pre/postemergence sugar beet; format: in vivo, Beta vulgaris
# How it was run: as §1
# morningglory = assay: Test B pre/postemergence morningglory; format: in vivo, Ipomoea hederacea
# How it was run: as §1
# blackgrass = assay: Test B pre/postemergence blackgrass; format: in vivo, Alopecurus myosuroides
# How it was run: as §1
# corn = assay: Test B pre/postemergence corn; format: in vivo, Zea mays
# How it was run: as §1
# cocklebur = assay: Test B pre/postemergence cocklebur; format: in vivo, Xanthium strumarium
# How it was run: as §1
# velvetleaf = assay: Test B pre/postemergence velvetleaf; format: in vivo, Abutilon theophrasti
# How it was run: as §1
# soybean = assay: Test B pre/postemergence soybean; format: in vivo, Glycine max
# How it was run: as §1
# wild oat = assay: Test B pre/postemergence wild oat; format: in vivo, Avena fatua
# How it was run: as §1
# surinam grass = assay: Test B pre/postemergence surinam grass; format: in vivo, Brachiaria decumbens
# How it was run: as §1
# crabgrass = assay: Test B pre/postemergence crabgrass; format: in vivo, Digitaria sanguinalis
# How it was run: as §1
# rape = assay: Test B pre/postemergence rape; format: in vivo, Brassica napus
# How it was run: as §1
# wheat = assay: Test B pre/postemergence wheat; format: in vivo, Triticum aestivum
# How it was run: as §1
# purple nutsedge = assay: Test B pre/postemergence purple nutsedge; format: in vivo, Cyperus rotundus
# How it was run: as §1
# pigweed = assay: Test B pre/postemergence pigweed; format: in vivo, Amaranthus retroflexus
# How it was run: as §1
# [1] = Postemergence, Rate 62 g/ha, scale of 0 to 10, 0 is no effect, 10 is complete control
# [2] = Postemergence, Rate 125 g/ha, scale of 0 to 10 where 0 is no effect and 10 is complete control
# [3] = Preemergence, Rate 62 g/ha, scale 0 to 10 (0 no effect, 10 complete control)
# [4] = Preemergence, Rate 125 g/ha, scale of 0 to 10 where 0 is no effect and 10 is complete control
# [5] = Preemergence, Rate 500 g/ha, scale of 0 to 10 where 0 is no effect and 10 is complete control
# [6] = Postemergence, Rate 250 g/ha, scale of 0 to 10, 0 is no effect, 10 is complete control
# [7] = Postemergence, Rate 500 g/ha, scale of 0 to 10 where 0 is no effect and 10 is complete control
compound,measurement,setting,value
CC(C)N(C(=O)n1oc(=O)n(CCCC(F)(F)F)c1=O)c1ccccc1 [Compound 585],Bedstraw plant response rating,bedstraw; [1],0
same,"Plant response rating, Bedstraw",bedstraw; [2],8
same,Bedstraw plant response rating,bedstraw; [3],7
same,Bedstraw plant response rating,bedstraw; [4],8
same,Bedstraw plant response rating (0 to 10 scale),"bedstraw; Preemergence, Rate 250 g/ha",9
same,Bedstraw plant response rating,bedstraw; [5],8
same,Giant foxtail plant response rating,giant foxtail; [1],6
same,"Plant response rating, Giant foxtail",giant foxtail; [2],6
same,Giant foxtail plant response rating,giant foxtail; [6],8
same,"Plant response rating, Giant foxtail",giant foxtail; [7],9
same,Giant foxtail plant response rating,giant foxtail; [3],7
same,Giant foxtail plant response rating,giant foxtail; [4],6
same,Giant foxtail plant response rating,giant foxtail; [5],10
same,"Plant response rating, Sugarbeets",sugar beet; [2],2
same,Sugarbeets plant response rating,sugar beet; [6],4
same,"Plant response rating, Sugarbeets",sugar beet; [7],7
same,Sugarbeets plant response rating,sugar beet; [3],0
same,Sugarbeets plant response rating,sugar beet; [4],3
same,Sugarbeets plant response rating,sugar beet; [5],6
same,Morningglory plant response rating,morningglory; [1],4
same,"Plant response rating, Morningglory",morningglory; [2],8
same,Morningglory plant response rating,morningglory; [6],10
same,"Plant response rating, Morningglory",morningglory; [7],10
same,Morningglory plant response rating,morningglory; [3],0
same,Morningglory plant response rating,morningglory; [4],0
same,Morningglory plant response rating,morningglory; [5],5
same,Blackgrass plant response rating,blackgrass; [1],3
same,"Plant response rating, Blackgrass",blackgrass; [2],6
same,Blackgrass plant response rating,blackgrass; [6],6
same,"Plant response rating, Blackgrass",blackgrass; [7],7
same,Blackgrass plant response rating,blackgrass; [3],3
same,Blackgrass plant response rating,blackgrass; [4],8
same,Blackgrass plant response rating (0 to 10 scale),"blackgrass; Preemergence, Rate 250 g/ha",8
same,Blackgrass plant response rating,blackgrass; [5],8
same,Corn plant response rating,corn; [1],0
same,"Plant response rating, Corn",corn; [2],0
same,Corn plant response rating,corn; [6],0
same,"Plant response rating, Corn",corn; [7],5
same,Corn plant response rating,corn; [3],0
same,Corn plant response rating,corn; [4],2
same,Corn plant response rating (0 to 10 scale),"corn; Preemergence, Rate 250 g/ha",3
same,Corn plant response rating,corn; [5],5
same,Cocklebur plant response rating,cocklebur; [1],0
same,"Plant response rating, Cocklebur",cocklebur; [2],0
same,Cocklebur plant response rating,cocklebur; [6],0
same,"Plant response rating, Cocklebur",cocklebur; [7],7
same,Cocklebur plant response rating,cocklebur; [3],0
same,Cocklebur plant response rating,cocklebur; [4],0
same,Cocklebur plant response rating (0 to 10 scale),"cocklebur; Preemergence, Rate 250 g/ha",0
same,Cocklebur plant response rating,cocklebur; [5],3
same,"Plant response rating, Velvetleaf",velvetleaf; [2],3
same,Velvetleaf plant response rating,velvetleaf; [6],4
same,"Plant response rating, Velvetleaf",velvetleaf; [7],5
same,Velvetleaf plant response rating,velvetleaf; [3],0
same,Velvetleaf plant response rating,velvetleaf; [4],0
same,Velvetleaf plant response rating,velvetleaf; [5],6
same,"Plant response rating, Soybean",soybean; [2],0
same,Soybean plant response rating,soybean; [6],4
same,"Plant response rating, Soybean",soybean; [7],3
same,Soybean plant response rating,soybean; [3],0
same,Soybean plant response rating,soybean; [4],0
same,Soybean plant response rating,soybean; [5],3
same,"Plant response rating, Wild oats",wild oat; [2],0
same,Wild oats plant response rating,wild oat; [6],0
same,"Plant response rating, Wild oats",wild oat; [7],2
same,Wild oats plant response rating,wild oat; [3],0
same,Wild oats plant response rating,wild oat; [4],3
same,Wild oats plant response rating,wild oat; [5],9
same,B. signalgrass plant response rating,surinam grass; [1],0
same,"Plant response rating, B. signalgrass",surinam grass; [2],0
same,B. signalgrass plant response rating,surinam grass; [6],0
same,"Plant response rating, B. signalgrass",surinam grass; [7],7
same,B. signalgrass plant response rating,surinam grass; [3],3
same,B. signalgrass plant response rating,surinam grass; [4],8
same,"B. signalgrass plant response rating (0 to 10 scale, 0 is no effect, 10 is complete control)","surinam grass; Preemergence, Rate 250 g/ha",9
same,B. signalgrass plant response rating,surinam grass; [5],9
same,"Plant response rating, Crabgrass",crabgrass; [2],5
same,Crabgrass plant response rating,crabgrass; [6],9
same,"Plant response rating, Crabgrass",crabgrass; [7],9
same,Crabgrass plant response rating,crabgrass; [3],5
same,Crabgrass plant response rating,crabgrass; [4],8
same,Crabgrass plant response rating,crabgrass; [5],10
same,Rape plant response rating,rape; [1],0
same,"Plant response rating, Rape",rape; [2],3
same,Rape plant response rating,rape; [6],5
same,"Plant response rating, Rape",rape; [7],5
same,Rape plant response rating,rape; [3],3
same,Rape plant response rating,rape; [4],8
same,Rape plant response rating,rape; [5],10
same,"Plant response rating, Wheat",wheat; [2],2
same,Wheat plant response rating,wheat; [6],2
same,"Plant response rating, Wheat",wheat; [7],4
same,Wheat plant response rating,wheat; [3],0
same,Wheat plant response rating,wheat; [4],3
same,Wheat plant response rating,wheat; [5],3
same,Nutsedge plant response rating,purple nutsedge; [1],0
same,"Plant response rating, Nutsedge",purple nutsedge; [2],0
same,Nutsedge plant response rating,purple nutsedge; [6],0
same,"Plant response rating, Nutsedge",purple nutsedge; [7],0
same,Nutsedge plant response rating,purple nutsedge; [3],0
same,Nutsedge plant response rating,purple nutsedge; [4],0
same,Nutsedge plant response rating,purple nutsedge; [5],10
same,"Plant response rating, Redroot pigweed",pigweed; [2],0
same,Redroot pigweed plant response rating,pigweed; [6],3
same,"Plant response rating, Redroot pigweed",pigweed; [7],7
same,Redroot pigweed plant response rating,pigweed; [3],6
same,Redroot pigweed plant response rating,pigweed; [4],9
same,Redroot pigweed plant response rating,pigweed; [5],10
